Consider two compounds from patent publication US20250064768A1, “METHODS AND COMPOSITIONS FOR TREATING AGING AND CHRONIC DISEASE” (priority 2021, published 2025).

For series [1] the following is noted: human, in vivo; cited from earlier work.
For series [2] the following is noted: in vivo; cited from earlier work.
For series [3] the following is noted: mouse, in vivo. Here is the method:
The clinical development of trans-crocetin has been problematic because its oxygen diffusion enhancing effect is transient, due to two key factors. Poor solubility: trans-crocetinate monovalent metal salts such as TSC, as free drugs were designed presumably to overcome the solubility issue associated with crocetin (free acid). Short half-life: TSC half-life is approximately 30 minutes, which in a clinical setting leads to transient effect on oxygen diffusion enhancement.

In series [4] the test system is HUVECs. Nature of the series: Reoxygenation of hypoxic HUVECs (flow cytometry, BioTracker 520 green hypoxia dye). Format: cell-based. As to conditions: HUVECs under hypoxia (1%). Here is the method: The % P02 was assessed based on the readout of the BioTracker 520 green hypoxia dye. (FIG. 1G) Quantification of % P02 based on the flow cytometric data. (FIG. 1H) Quantification of % P02 based on the flow cytometric data of HUVECs incubated with 120 μg/mL LEAF-4L121 over time and (FIG. 11) as a function of various concentrations of LEAF-4L121 at 24 h.
In vitro, we first sought to evaluate the reoxygenation properties of LEAF-4L121 in endothelial cells (HUVECs). The IC50 of LEAF-4L121 in HUVECs was determined after 72 h of treatment by viability assays (CellTiter-Glo, Promega). […] We next incubated HUVECs in hypoxic conditions (1% P02) for 24 h before treatment with either free TC or various concentrations of LEAF-4L121. […] This rapid oxygenation effect of LEAF-4L121 is likely attributed to a biphasic release of TC from the liposomes that includes an initial fast release (approx. 25% in the first 6 h) of some of the payload followed by a more sustained release of TC from the liposomes over a prolonged period.

Series [5] in a line: Phase 2 clinical study of liposomal trans-crocetin: pharmacokinetics. As to conditions: across different dosing regimens.
The test system of series [6] is mouse model of sepsis. As to conditions: in vitro results and mouse model of sepsis.

On to `CC(/C=C/C=C(\C)C(=O)[O-])=C\C=C\C=C(C)\C=C\C=C(/C)C(=O)[O-].[Na+].[Na+]` [TSC, trans sodium crocetinate], for which the “safety in clinical trials” value in series [1] is “no safety concerns”. For the same compound, in series [2], the half-life result is recorded as “approximately 30 minutes”. For the same compound, the “half-life (t½)” value in series [3] is “half an hour”.

As to `CC(/C=C/C=C(\C)C(=O)O)=C\C=C\C=C(C)\C=C\C=C(/C)C(=O)O` [TC, trans-crocetin], the “reoxygenation, PO2” value in series [4] (30 min post-treatment, 5 μg/mL TC) was “up to 15 % PO2”; in series [4] (3 h after treatment), 5 % P02. Further, the “AUC and Cmax versus body weight” value in series [5] was “stable levels of AUC and Cmax across a wide range of body weights”. For the same compound, the reoxygenation activity entry in series [6] is listed as “demonstrated the reoxygenation activity”.
